ChEMBL document CHEMBL4602661, “Immunosuppressive Nor-isopimarane Diterpenes from Cultures of the Fungicolous Fungus Xylaria longipes HFG1018” (J Nat Prod, 2020)
pIC50: −log10 of the molar value.

How the values were obtained:
[1] = Cytotoxicity against BALB/C mouse B lymphocytes assessed as cell viability at 40 uM after 8 to 10 hrs by CCK-8 assay relative to control; assay type: cell-based; details: read-out: Activity
[2] = Cytotoxicity against BALB/C mouse T lymphocytes assessed as cell viability at 40 uM after 8 to 10 hrs by CCK-8 assay relative to control; assay type: cell-based; details: read-out: Activity
T-cell = assay: Immunosuppressive activity against BALB/C mouse T lymphocytes assessed as reduction in concanavalin A-induced cell proliferation by measuring [3H]-thymidine uptake incubated for 8 hrs by Beta scintillation counting method; assay type: functional, cell-based
B-cell line = assay: Immunosuppressive activity against BALB/C mouse B lymphocytes assessed as reduction in LPS-induced cell proliferation by measuring [3H]-thymidine uptake incubated for 8 hrs by Beta scintillation counting method; assay type: functional, cell-based

| SMILES | viability at 40 µM [1] [%] | viability at 40 µM [2] [%] | pIC50 (T-cell) | pIC50 (B-cell line) |
| --- | --- | --- | --- | --- |
| CC1(O)CCC[C@]2(C)C3=C(C[C@@]4(C)CCO[C@@H]3C4)[C@@H](O)C[C@@H]12 (stereo partly drawn) | > 85 | > 85 | – | – |
| C=C1CC[C@H]2[C@@](C)(CO)CCC[C@]2(C)[C@H]1CC/C(C)=C/CO | > 85 | > 85 | 4.81 | 4.33 |
| C[C@@]12CCO[C@@H]1C1=CC[C@H]3[C@](C)(O)[C@H](O)CC[C@]3(C)[C@H]1CC2 | > 85 | > 85 | – | – |
| C[C@]1(CCO)CCC2=C(C1)C(=O)C[C@H]1[C@](C)(O)CCC[C@]21C | > 85 | > 85 | – | – |
| C[C@]1(CCO)CC[C@H]2C(=CC[C@@H]3[C@]2(C)CCC[C@@]3(C)O)C1 | > 85 | > 85 | 6.00 | 4.79 |
| C[C@@]12CCO[C@@H]1C1=CC[C@H]3[C@](C)(CO)CCC[C@]3(C)[C@H]1CC2 | > 85 | > 85 | – | – |
| C[C@@]12CCO[C@@H]1C1=CC[C@H]3[C@@](O)(CO)CCC[C@]3(C)[C@H]1CC2 | > 85 | > 85 | 4.95 | 4.45 |
| C[C@@]12CCO[C@@H]1C1=CC[C@@H]3[C@](C)(CCC[C@@]3(C)O)[C@H]1CC2 | > 85 | > 85 | 4.57 | 4.40 |
| C[C@@]12CCO[C@@H]1C1=CC[C@H]3[C@@](C)(O)[C@@H](O)CC[C@]3(C)[C@H]1CC2 | > 85 | > 85 | – | – |
| C[C@@]12CCO[C@@H]1C1=CC[C@@H]3[C@](C)(CCC[C@]3(C)O)[C@H]1CC2 | > 85 | > 85 | 4.68 | 4.29 |
| C[C@]12CC[C@H]3C(=CC[C@@H]4[C@]3(C)CCC[C@@]4(C)O)[C@H]1OC[C@@H]2O | > 85 | > 85 | – | – |
| C[C@@]12CCO[C@@H]1C1=CC[C@H]3[C@](C)(O)[C@@H](O)CC[C@]3(C)[C@H]1CC2 | > 85 | > 85 | – | – |
| C[C@]12CCC[C@@](C)(O)[C@@H]1CC=C1[C@H]3OC[C@@H](O)[C@@]3(C)CC[C@@H]12 | > 85 | > 85 | 5.40 | 4.34 |
| C[C@@]12CCO[C@@H]1C1=C[C@@H](O)[C@@H]3[C@](C)(CCC[C@]3(C)O)[C@H]1CC2 | > 85 | > 85 | 4.83 | 4.31 |
| C[C@@]1(CCO)CC2=CC[C@@H]3[C@](C)(CCC[C@@]3(C)O)[C@H]2[C@H](O)C1 | > 85 | > 85 | – | – |
| C[C@@]12CCO[C@@H]1C1=CC[C@H]3[C@H](O)CCC[C@]3(C)[C@H]1CC2 | > 85 | > 85 | – | – |
| C[C@]1(CCO)CC[C@H]2C(=CC[C@@H]3[C@]2(C)CCC[C@]3(C)O)C1 | > 85 | > 85 | – | – |
| C[C@]1(CCO)CC[C@H]2C(=CC[C@H]3[C@H](O)CCC[C@]23C)C1 | > 85 | > 85 | – | – |
| C[C@@]12CCO[C@@H]1C1=CC[C@H]3[C@H](CO)CCC[C@]3(C)[C@H]1CC2 | > 85 | > 85 | 5.18 | 4.42 |
| C[C@]1(CCO)CC=C2C(=CC[C@H]3[C@](C)(O)CCC[C@]23C)C1 | > 85 | > 85 | – | – |
| C[C@@H]1C[C@H]2[C@@H]3CCC4=CC(=O)C=C[C@]4(C)[C@@]3(F)[C@@H](O)C[C@]2(C)[C@@]1(O)C(=O)CO [DEXAMETHASONE] | – | – | 5.80 | 6.10 |
